Biological target: T1, γ-secretase (Homo sapiens, UniProt P49768)
T1 construct: uses a HEK293 membrane fraction as a source of γ-secretase; endogenous in cells; host or cells: HEK293 (microsomal membrane fraction, solubilised in 0.25% CHAPSO)
Assay: in vitro assay of γ-secretase activity (HEK293 membrane fraction, recombinant APP substrate, Abeta ELISA)
Type: biochemical
Settings: γ-secretase inhibition; HEK293 membrane fraction solubilized in 0.25% CHAPSO, recombinant human APP C-terminal 100 amino acids substrate, Abeta detected by ELISA
Source text: Description of 1γ-Secretase Assay The activity of test compounds can be evaluated in assays which measure the proteolytic cleavage of suitable substrates by γ-secretase activity. These can be cellular assays where e.g., a substrate of the γ-secretase is fused in its cytoplasmic domain to a transcription factor. Cells are transfected with this fusion gene and a reporter gene, e.g., firefly luciferase, which expression is enhanced by the transcription factor. Cleavage of the fused substrate by γ-secretase will lead to expression of the reporter gene which can be monitored in appropriate assays. The γ-secretase activity can also be determined in cell-free in vitro assays where e.g., a cell lysate containing the γ-secretase complex is incubated with a suitable APP-derived substrate which is cleaved to the Abeta peptides. The amount of produced peptides can be determined with specific ELISA assays. Cell lines of neuronal origin secrete Abeta peptides which can be measured with the specific ELISA assay. Treatment with compounds which inhibit γ-secretase leads to a reduction of secreted Abeta thus providing a measure of inhibition. The in vitro assay of γ-secretase activity uses a HEK293 membrane fraction as a source of γ-secretase and a recombinant APP substrate. Latter consist of the C-terminal 100 amino acids of human APP fused to a 6× Histidin tail for purification which is expressed in E. coli in a regulatable expression vector, e.g. pEt15. This recombinant protein corresponds to the truncated APP fragment which results after […] of the extracellular domain and which constitutes the γ-secretase substrate. The assay principle is described in Li Y M et al, PNAS 97(11), 6138-6143 (2000). Hek293 cells are mechanically disrupted and the microsomal fraction is isolated by differential centrifugation. The membranes are solubilized in detergent (0.25% CHAPSO) and incubated with the APP substrate. The Abeta peptides which are produced by γ-secretase cleavage of the substrate are detected by specific ELISA assays as described (Brockhaus M et al, Neuroreport 9(7), 1481-1486 (1998).

| Compound | IC50 |
| --- | --- |
| C[C@](F)(C(=O)NCC(F)(F)F)C(=O)N[C@@H]1C(=O)N(CCOCc2ccccc2)c2ccccc2-c2ccccc21 [Example 43, (S)—N—[(S)-5-(2-Benzyloxy-ethyl)-6-oxo-6,7-dihydro-5H-dibenzo[b,d]azepin-7-yl]-2-fluoro-2-methyl-N′-(2,2,2-trifluoro-ethyl)-malonamide] | 13 nM |
| C[C@](F)(C(=O)NCCC(F)(F)C(F)(F)F)C(=O)N[C@@H]1C(=O)N(CCOCc2ccccc2)c2ccccc2-c2ccccc21 [Example 44, (S)—N—[(S)-5-(2-Benzyloxy-ethyl)-6-oxo-6,7-dihydro-5H-dibenzo[b,d]azepin-7-yl]-2-fluoro-2-methyl-N′-(3,3,4,4,4-pentafluoro-butyl)-malonamide] | 9 nM |
| C[C@H](OC(=O)NCCF)C(=O)N[C@@H]1C(=O)N(CCO)c2ccccc2-c2ccccc21 [Example 47, (2-Fluoro-ethyl)-carbamic acid (S)-1-[(S)-5-(2-hydroxy-ethyl)-6-oxo-6,7-dihydro-5H-dibenzo[b,d]azepin-7-ylcarbamoyl]-ethyl ester] | 755 nM |
| C[C@H](OC(=O)NCC(F)(F)F)C(=O)N[C@@H]1C(=O)N(CCO)c2ccccc2-c2ccccc21 [Example 48, (2,2,2-Trifluoro-ethyl)-carbamic acid (S)-1-[(S)-5-(2-hydroxy-ethyl)-6-oxo-6,7-dihydro-5H-dibenzo[b,d]azepin-7-ylcarbamoyl]-ethyl ester] | 14 nM |
| C[C@](F)(C(=O)NCC(F)(F)F)C(=O)N[C@@H]1C(=O)N(CCO)c2ccccc2-c2ccccc21 [Example 49, (S)-2-Fluoro-N—[(S)-5-(2-hydroxy-ethyl)-6-oxo-6,7-dihydro-5H-dibenzo[b,d]azepin-7-yl]-2-methyl-N′-(2,2,2-trifluoro-ethyl)-malonamide] | 157 nM |
| C[C@](F)(C(=O)NCCC(F)(F)C(F)(F)F)C(=O)N[C@@H]1C(=O)N(CCO)c2ccccc2-c2ccccc21 [Example 50, (S)-2-Fluoro-N—[(S)-5-(2-hydroxy-ethyl)-6-oxo-6,7-dihydro-5H-dibenzo[b,d]azepin-7-yl]-2-methyl-N′-(3,3,4,4,4-pentafluoro-butyl)-malonamide] | 16 nM |
| C[C@@](F)(C(=O)NCC(F)(F)F)C(=O)N[C@@H]1C(=O)N(CCOCc2ccccc2)c2ccccc2-c2ccccc21 [Example 52, (R)—N—[(S)-5-(2-Benzyloxy-ethyl)-6-oxo-6,7-dihydro-5H-dibenzo[b,d]azepin-7-yl]-2-fluoro-2-methyl-N′-(2,2,2-trifluoro-ethyl)-malonamide] | 10 nM |
| C[C@@](F)(C(=O)NCC(F)(F)F)C(=O)N[C@@H]1C(=O)N(CCO)c2ccccc2-c2ccccc21 [Example 53, (R)-2-Fluoro-N—[(S)-5-(2-hydroxy-ethyl)-6-oxo-6,7-dihydro-5H-dibenzo[b,d]azepin-7-yl]-2-methyl-N′-(2,2,2-trifluoro-ethyl)-malonamide] | 9 nM |
| C[C@@](F)(C(=O)NCCC(F)(F)F)C(=O)N[C@@H]1C(=O)N(CCO)c2ccccc2-c2ccccc21 [Example 54, (R)-2-Fluoro-N—[(S)-5-(2-hydroxy-ethyl)-6-oxo-6,7-dihydro-5H-dibenzo[b,d]azepin-7-yl]-2-methyl-N-(3,3,3-trifluoro-propyl)-malonamide] | 8 nM |
| CC(O)(C(=O)NCCC(F)(F)C(F)(F)F)C(=O)N[C@@H]1C(=O)N(CCOCc2ccccc2)c2ccccc2-c2ccccc21 (stereo partly drawn) [Example 55, N—[(S)-5-(2-Benzyloxy-ethyl)-6-oxo-6,7-dihydro-5H-dibenzo[b,d]azepin-7-yl]-2-hydroxy-2-methyl-N′-(3,3,4,4,4-pentafluoro-butyl)-malonamide] | 12 nM |
| C[C@@](O)(C(=O)NCC(F)(F)F)C(=O)N[C@@H]1C(=O)N(CCOCc2ccccc2)c2ccccc2-c2ccccc21 [Example 57, (R)—N—[(S)-5-(2-Benzyloxy-ethyl)-6-oxo-6,7-dihydro-5H-dibenzo[b,d]azepin-7-yl]-2-hydroxy-2-methyl-N′-(2,2,2-trifluoro-ethyl)-malonamide] | 90 nM |
| C[C@](O)(C(=O)NCC(F)(F)F)C(=O)N[C@@H]1C(=O)N(CCOCc2ccccc2)c2ccccc2-c2ccccc21 [Example 58, (S)—N—[(S)-5-(2-Benzyloxy-ethyl)-6-oxo-6,7-dihydro-5H-dibenzo[b,d]azepin-7-yl]-2-hydroxy-2-methyl-N′-(2,2,2-trifluoro-ethyl)-malonamide] | 8 nM |
| C[C@@](O)(C(=O)NCC(F)(F)F)C(=O)N[C@@H]1C(=O)N(CCO)c2ccccc2-c2ccccc21 [Example 59, (R)-2-Hydroxy-N—[(S)-5-(2-hydroxy-ethyl)-6-oxo-6,7-dihydro-5H-dibenzo[b,d]azepin-7-yl]-2-methyl-N′-(2,2,2-trifluoro-ethyl)-malonamide] | 190 nM |
| COCCN1C(=O)[C@@H](NC(=O)C(OC)C(=O)NCC(F)(F)C(F)(F)F)c2ccccc2-c2ccccc21 (stereo partly drawn) [Example 68, 2-Methoxy-N—[(S)-5-(2-methoxy-ethyl)-6-oxo-6,7-dihydro-5H-dibenzo[b,d]azepin-7-yl]-N′-(2,2,3,3,3-pentafluoro-propyl)-malonamide] | 9 nM |

Molecules with a lower IC50, results first:

| IC50 | Compound |
| --- | --- |
| 1 nM | C[C@@](F)(C(=O)NCCC(F)(F)C(F)(F)F)C(=O)N[C@@H]1C(=O)N(CCO)c2ccccc2-c2ccccc21 [Example 42, (R)-2-Fluoro-N—[(S)-5-(2-hydroxy-ethyl)-6-oxo-6,7-dihydro-5H-dibenzo[b,d]azepin-7-yl]-2-methyl-N′-(3,3,4,4,4-pentafluoro-butyl)-malonamide] |
| 7 nM | C[C@@](F)(C(=O)NCCC(F)(F)F)C(=O)N[C@@H]1C(=O)N(CCOCc2ccccc2)c2ccccc2-c2ccccc21 [Example 51, (R)—N—[(S)-5-(2-Benzyloxy-ethyl)-6-oxo-6,7-dihydro-5H-dibenzo[b,d]azepin-7-yl]-2-fluoro-2-methyl-N′-(3,3,3-trifluoro-propyl)-malonamide] |
| 2 nM | CC(O)(C(=O)NCCC(F)(F)C(F)(F)F)C(=O)N[C@@H]1C(=O)N(CCO)c2ccccc2-c2ccccc21 (stereo partly drawn) [Example 56, 2-Hydroxy-N—[(S)-5-(2-hydroxy-ethyl)-6-oxo-6,7-dihydro-5H-dibenzo[b,d]azepin-7-yl]-2-methyl-N′-(3,3,4,4,4-pentafluoro-butyl)-malonamide] |
| 4 nM | C[C@](O)(C(=O)NCC(F)(F)F)C(=O)N[C@@H]1C(=O)N(CCO)c2ccccc2-c2ccccc21 [Example 60, (S)-2-Hydroxy-N—[(S)-5-(2-hydroxy-ethyl)-6-oxo-6,7-dihydro-5H-dibenzo[b,d]azepin-7-yl]-2-methyl-N′-(2,2,2-trifluoro-ethyl)-malonamide] |
| 2 nM | CC(O)(C(=O)NCCC(F)(F)F)C(=O)N[C@@H]1C(=O)N(CCOCc2ccccc2)c2ccccc2-c2ccccc21 (stereo partly drawn) [Example 63, N—[(S)-5-(2-Benzyloxy-ethyl)-6-oxo-6,7-dihydro-5H-dibenzo[b,d]azepin-7-yl]-2-hydroxy-2-methyl-N′-(3,3,3-trifluoro-propyl)-malonamide] |
| 5 nM | COCCN1C(=O)[C@@H](NC(=O)C(C)(C)C(=O)NCC(F)(F)C(F)(F)F)c2ccccc2-c2ccccc21 [Example 67, N—[(S)-5-(2-Methoxy-ethyl)-6-oxo-6,7-dihydro-5H-dibenzo[b,d]azepin-7-yl]-2,2-dimethyl-N′-(2,2,3,3,3-pentafluoro-propyl)-malonamide] |
| 6 nM | CC(C)(C(=O)NCC(F)(F)C(F)(F)F)C(=O)N[C@@H]1C(=O)N(CCOc2ccc(F)cc2)c2ccccc2-c2ccccc21 [Example 69, N-{(S)-5-[2-(4-Fluoro-phenoxy)-ethyl]-6-oxo-6,7-dihydro-5H-dibenzo[b,d]azepin-7-yl}-2,2-dimethyl-N′-(2,2,3,3,3-pentafluoro-propyl)-malonamide] |
| 7 nM | CC(C)OCCN1C(=O)[C@@H](NC(=O)C(C)(C)C(=O)NCC(F)(F)C(F)(F)F)c2ccccc2-c2ccccc21 [Example 70, N—[(S)-5-(2-Isopropoxy-ethyl)-6-oxo-6,7-dihydro-5H-dibenzo[b,d]azepin-7-yl]-2,2-dimethyl-N′-(2,2,3,3,3-pentafluoro-propyl)-malonamide] |
| 6 nM | CCOCCN1C(=O)[C@@H](NC(=O)C(C)(C)C(=O)NCC(F)(F)C(F)(F)F)c2ccccc2-c2ccccc21 [Example 71, N—[(S)-5-(2-Ethoxy-ethyl)-6-oxo-6,7-dihydro-5H-dibenzo[b,d]azepin-7-yl]-2,2-dimethyl-N′-(2,2,3,3,3-pentafluoro-propyl)-malonamide] |
| 1 nM | CC(C)(C(=O)NCC(F)(F)C(F)(F)F)C(=O)N[C@@H]1C(=O)N(CC(O)C(F)(F)F)c2ccccc2-c2ccccc21 (stereo partly drawn) [Example 72, 2,2-Dimethyl-N—[(S)-6-oxo-5-(3,3,3-trifluoro-2-hydroxy-propyl)-6,7-dihydro-5H-dibenzo[b,d]azepin-7-yl]-N′-(2,2,3,3,3-pentafluoro-propyl)-malonamide] |
